Tests used:
COL1A11 (Collagen 1) = experiment: Expression of extracellular matrix gene Collagen 1, RT-PCR in NHDF; format: cell-based, human; conditions: 10^−5 M, 24 hours, quantitative RT-PCR
Protocol: (§1) In these examples, the expression of messenger RNAs was measured via the technique of quantitative RT-PCR (reverse transcription followed by polymerase chain reaction), after in vitro incubation of the various cell types in the absence or presence of the test compounds.
(§2) This study was performed on normal human dermal fibroblasts (NHDF) or on normal human epidermal keratinocytes (NHEK), depending on the genes tested. The molecules were tested at 10^−5 M in aqueous 0.1% dimethyl sulfoxide (DMSO) solution.
(§3) The cells were cultured at a concentration of 10,000 cells per well of 96-well plates, in the presence of standard culture medium as a function of the cell type.
(§4) The compounds were then added at the test concentration, for 24 hours.
(§5) The supernatant was removed and the cells were taken up in a specific buffer for extraction of the messenger RNAs (mRNA). The mRNAs were purified and reverse-transcribed in the presence of a commercial reverse transcriptase.
(§6) The complementary DNAs (cDNA) obtained were used in a real-time quantitative PCR experiment, by means of suitable primers. The degree of expression of the mRNAs was normalized with five reference genes.
(§7) The cells used for this example are normal human fibroblasts (NHDF).
(§8) The contact with the test compounds was carried out for 24 hours. […]

CRNN (Cornulin) = experiment: Expression of cell differentiation and adhesion gene CRNN, RT-PCR in NHEK; format: cell-based, human; conditions: 10^−5 M, 24 hours, quantitative RT-PCR
Protocol: as §1, §2, §3, §4, §5, §6
(§9) The cells used for this example are normal human keratinocytes (NHEK).
as §8

COL5A1 (Collagen 5) = experiment: Expression of extracellular matrix gene Collagen 5, RT-PCR in NHDF; format: cell-based, human; conditions: 10^−5 M, 24 hours, quantitative RT-PCR
Protocol: as §1, §2, §3, §4, §5, §6, §7, §8

AQP3 (Aquaporin 3) = experiment: Expression of cell differentiation and adhesion gene AQP3, RT-PCR in NHEK; format: cell-based, human; conditions: 10^−5 M, 24 hours, quantitative RT-PCR
Protocol: as §1, §2, §3, §4, §5, §6, §9, §8

sirtuin-5 = experiment: Expression of the gene coding for sirtuin-5, quantitative RT-PCR in NHDF; format: cell-based; conditions: normal human fibroblasts (NHDF), 10^−5 M in 0.1% DMSO, 24 hours, mRNA by quantitative RT-PCR
Protocol: In these examples, the expression of messenger RNAs was measured via the technique of quantitative RT-PCR (reverse transcription followed by polymerase chain reaction), after in vitro incubation of the various cell types in the absence or presence of the test compounds. This study was performed on normal human dermal fibroblasts (NHDF) or on normal human epidermal keratinocytes (NHEK), depending on the genes tested. The molecules were tested at 10^−5 M in aqueous 0.1% dimethyl sulfoxide (DMSO) solution. The cells were cultured at a concentration of 10,000 cells per well of 96-well plates, in the presence of standard culture medium as a function of the cell type. The compounds were then added at the test concentration, for 24 hours. The supernatant was removed and the cells were taken up in a specific buffer for extraction of the messenger RNAs (mRNA). The mRNAs were purified and reverse-transcribed in the presence of a commercial reverse transcriptase. The complementary DNAs (cDNA) obtained were used in a real-time quantitative PCR experiment, by means of suitable primers. The degree of expression of the mRNAs was normalized with five reference genes. The cells used for this example are normal human fibroblasts (NHDF). The contact with the test compounds was carried out for 24 hours. The results obtained, in terms of expression of sirtuin-5 (coded for by the gene of Genbank accession number: NC—000006.11) relative to the basal level (absence of compound) taken to 100%, are shown in Table 5 below.

Collagen 1 = experiment: Expression of Collagen 1 at the protein level by immunofluorescence in NHDF; format: cell-based, human; conditions: 10 ppm in 0.1% DMSO, 24 hours, FIG. 1
Protocol: In this example, the expression of Collagen 1 was measured at the protein level via the immunofluorescence technique, after in vitro incubation of the cells in the absence or presence of the test compounds, at a concentration of 10 ppm in aqueous 0.1% DMSO solution.
The compound in accordance with the invention of formula (IIa) and the comparative compounds Comp.1 and Comp.2, of respective formula (IV) and (V), were tested.
TGFβ was used as positive control, at a concentration of 10 ng/ml in an aqueous solution. An untreated control was also realized.
This study was performed on normal human dermal fibroblasts (NHDF).
The cells were cultured at a concentration of 4000 cells per well in 96-well plates, in the presence of standard culture medium.
The compounds were then added at the test concentration, identical for all, for 24 hours.
The supernatant was removed and the cells were prepared for the fluorescent labeling. The cells were fixed in the presence of 3.7% formaldehyde, and then permeabilized in a buffer containing 1% Triton®, and finally the cells were rinsed and incubated in the presence of an anti-Collagen1 monoclonal antibody (Abcam) for one hour 30 minutes. After washing, the cells were incubated in the presence of the secondary antibody (Alexa GAM488, Invitrogen) for 1 hour. […]
The fluorescence was then quantified using an automated microscope (ArrayScan®, Cellomics®). […]

[1] = system: MMP-9 (matrix metalloprotease type 9); experiment: Gene expression of MMP-9, quantitative RT-PCR in NHEK; format: cell-based; conditions: normal human keratinocytes (NHEK), 10^−5 M in 0.1% DMSO, 24 hours, mRNA by quantitative RT-PCR
Protocol: as §1, §2, §3, §4, §5, §6
The cells used for this example were normal human keratinocytes (NHEK).
The contact with the test compounds was carried out for 24 hours.

EVPL (Envoplakin) = experiment: Expression of cell differentiation and adhesion gene EVPL, RT-PCR in NHEK; format: cell-based, human; conditions: 10^−5 M, 24 hours, quantitative RT-PCR
Protocol: as §1, §2, §3, §4, §5, §6, §9, §8

[2] = system: HAS3 (Hyaluronan synthase 3); experiment: Expression of extracellular matrix gene Hyaluronan synthase 3, RT-PCR in NHDF; format: cell-based, human; conditions: 10^−5 M, 24 hours, quantitative RT-PCR
Protocol: as §1, §2, §3, §4, §5, §6, §7, §8

SPARC (Osteonectin) = experiment: Expression of extracellular matrix gene SPARC, RT-PCR in NHDF; format: cell-based, human; conditions: 10^−5 M, 24 hours, quantitative RT-PCR
Protocol: as §1, §2, §3, §4, §5, §6, §7, §8

COL3A1 (Collagen 3) = experiment: Expression of extracellular matrix gene Collagen 3, RT-PCR in NHDF; format: cell-based, human; conditions: 10^−5 M, 24 hours, quantitative RT-PCR
Protocol: as §1, §2, §3, §4, §5, §6, §7, §8

[3] = system: TGM1 (Transglutaminase 1); experiment: Expression of cell differentiation and adhesion gene TGM1, RT-PCR in NHEK; format: cell-based, human; conditions: 10^−5 M, 24 hours, quantitative RT-PCR
Protocol: as §1, §2, §3, §4, §5, §6, §9, §8

LAMA5 (Laminin alpha 5) = experiment: Expression of extracellular matrix gene Laminin alpha 5, RT-PCR in NHDF; format: cell-based, human; conditions: 10^−5 M, 24 hours, quantitative RT-PCR
Protocol: as §1, §2, §3, §4, §5, §6, §7, §8

ELN (Elastin) = experiment: Expression of extracellular matrix gene Elastin, RT-PCR in NHDF; format: cell-based, human; conditions: 10^−5 M, 24 hours, quantitative RT-PCR
Protocol: as §1, §2, §3, §4, §5, §6, §7, §8

EPPK1 (Epiplakin 1) = experiment: Expression of cell differentiation and adhesion gene EPPK1, RT-PCR in NHEK; format: cell-based, human; conditions: 10^−5 M, 24 hours, quantitative RT-PCR
Protocol: as §1, §2, §3, §4, §5, §6, §9, §8

KRT1 (Keratin 1) = experiment: Expression of cell differentiation and adhesion gene KRT1, RT-PCR in NHEK; format: cell-based, human; conditions: 10^−5 M, 24 hours, quantitative RT-PCR
Protocol: as §1, §2, §3, §4, §5, §6, §9, §8

[4] = system: SPINK5 (Serine peptidase Kazal type 5); experiment: Expression of cell differentiation and adhesion gene SPINK5, RT-PCR in NHEK; format: cell-based, human; conditions: 10^−5 M, 24 hours, quantitative RT-PCR
Protocol: as §1, §2, §3, §4, §5, §6, §9, §8

protein Klotho (KL) = experiment: Expression of the gene coding for the protein Klotho (KL), quantitative RT-PCR in NHDF; format: cell-based; conditions: normal human fibroblasts (NHDF), 10^−5 M in 0.1% DMSO, 24 hours, mRNA by quantitative RT-PCR
Protocol: as §1, §2, §3, §4, §5, §6, §7, §8

In the case of `COc1ccc2[nH]cc(CCNC(=O)/C=C/c3ccc(O)c(O)c3)c2c1` [(IIa), (2E)-3-(3,4-Dihydroxyphenyl)-N-[2-(5-methoxy-1H-indol-3-yl)ethyl]-2-propenamide], the “Gene expression relative to the basal level taken to 100%: COL1A11 (Collagen 1)” value (COL1A11 (Collagen 1)) is reported as 133%, the “Gene expression relative to the basal level taken to 100%: CRNN (Cornulin)” value (CRNN (Cornulin)) is reported as 261% and the “Gene expression relative to the basal level taken to 100%: COL5A1 (Collagen 5)” value (COL5A1 (Collagen 5)) is reported as 144%. The “Gene expression relative to the basal level taken to 100%: AQP3 (Aquaporin 3)” value (AQP3 (Aquaporin 3)) was 228%, the “Expression of sirtuin-5 relative to the basal level taken to 100%” value (sirtuin-5) was 153% and the “Expression (production) of Collagen 1 relative to the basal level (control) taken to 100%” value (Collagen 1) was “substantially stimulates the production of collagen 1 by the cells, as much as the positive control (TGFβ)”. For the same compound, the “Decrease of expression of MMP-9 relative to the basal level taken to 100%” value [1] was −67%, the “Gene expression relative to the basal level taken to 100%: EVPL (Envoplakin)” value (EVPL (Envoplakin)) was 166% and the “Gene expression relative to the basal level taken to 100%: HAS3 (Hyaluronan synthase 3)” value [2] was 144%. For the same compound, the “Gene expression relative to the basal level taken to 100%: SPARC (Osteonectin)” value (SPARC (Osteonectin)) was 118%, the “Gene expression relative to the basal level taken to 100%: COL3A1 (Collagen 3)” value (COL3A1 (Collagen 3)) was 125% and the “Gene expression relative to the basal level taken to 100%: TGM1 (Transglutaminase 1)” value [3] was 183%. For the same compound, the “Gene expression relative to the basal level taken to 100%: LAMA5 (Laminin alpha 5)” value (LAMA5 (Laminin alpha 5)) was 141%, the “Gene expression relative to the basal level taken to 100%: ELN (Elastin)” value (ELN (Elastin)) was 136% and the “Gene expression relative to the basal level taken to 100%: EPPK1 (Epiplakin 1)” value (EPPK1 (Epiplakin 1)) was 177%. The “Gene expression relative to the basal level taken to 100%: KRT1 (Keratin 1)” value (KRT1 (Keratin 1)) was 142% and the “Gene expression relative to the basal level taken to 100%: SPINK5 (Serine peptidase Kazal type 5)” value [4] was 173%.

With `COc1ccc2[nH]cc(CCNC(=O)/C=C/c3ccc(O)cc3)c2c1` [(IIb)] the “Expression of the protein Klotho relative to the basal level taken to 100%” value (protein Klotho (KL)) was “+144%” and the “Expression of sirtuin-5 relative to the basal level taken to 100%” value (sirtuin-5) was 125%.

For `COc1ccc2[nH]cc(CCNC(=O)c3ccc(O)cc3O)c2c1` [(IIc)], the “Decrease of expression of MMP-9 relative to the basal level taken to 100%” value [1] was −56%.

`COc1cc(/C=C/C(=O)NCCc2c[nH]c3ccc(O)cc23)ccc1O` [(IId)] was tested, and the “Decrease of expression of MMP-9 relative to the basal level taken to 100%” value [1] was −47%.

`O=C(NCCc1c[nH]c2ccc(O)cc12)c1ccc(O)c(O)c1` [(IIe)] was tested, and the “Expression of sirtuin-5 relative to the basal level taken to 100%” value (sirtuin-5) was 146% and the “Decrease of expression of MMP-9 relative to the basal level taken to 100%” value [1] was −81%.

With `O=C(/C=C/c1ccc(O)c(O)c1)NCCc1c[nH]c2ccc(O)cc12` [(IIf)] the “Expression of sirtuin-5 relative to the basal level taken to 100%” value (sirtuin-5) was 140% and the “Decrease of expression of MMP-9 relative to the basal level taken to 100%” value [1] was −63%.

With `O=C(NCCc1c[nH]c2ccccc12)c1ccc(O)cc1` [Comp.2, 4-hydroxy-N-[2-(1H-indol-3-yl)ethyl]benzamide, reference compound] the “Expression (production) of Collagen 1 relative to the basal level (control) taken to 100%” value (Collagen 1) was “do not stimulate, or only very sparingly stimulate”.

From patent publication US20150031740A1, “COSMETIC COMPOSITION FOR STIMULATING THE CELLULAR ANTI-AGING FUNCTIONS OF THE SKIN” (SYNTIVIA, priority 2011, published 2015)
